From US5767291A, “Phenyl heterocycles as cox-2 inhibitors” (Merck Frosst Canada, Inc., priority 1996, dated 1998) come the findings set out here.

This experiment concerns the target T1, cyclooxygenase-2 (COX-2) (Homo sapiens, UniProt P35354).
T1 construct: human osteosarcoma 143 cells (which specifically express cyclooxygenase-2); endogenous in cells; host or cells: human osteosarcoma 143 cells (whole cells, and microsomes prepared from them)
T1 sequence (P35354 18-604): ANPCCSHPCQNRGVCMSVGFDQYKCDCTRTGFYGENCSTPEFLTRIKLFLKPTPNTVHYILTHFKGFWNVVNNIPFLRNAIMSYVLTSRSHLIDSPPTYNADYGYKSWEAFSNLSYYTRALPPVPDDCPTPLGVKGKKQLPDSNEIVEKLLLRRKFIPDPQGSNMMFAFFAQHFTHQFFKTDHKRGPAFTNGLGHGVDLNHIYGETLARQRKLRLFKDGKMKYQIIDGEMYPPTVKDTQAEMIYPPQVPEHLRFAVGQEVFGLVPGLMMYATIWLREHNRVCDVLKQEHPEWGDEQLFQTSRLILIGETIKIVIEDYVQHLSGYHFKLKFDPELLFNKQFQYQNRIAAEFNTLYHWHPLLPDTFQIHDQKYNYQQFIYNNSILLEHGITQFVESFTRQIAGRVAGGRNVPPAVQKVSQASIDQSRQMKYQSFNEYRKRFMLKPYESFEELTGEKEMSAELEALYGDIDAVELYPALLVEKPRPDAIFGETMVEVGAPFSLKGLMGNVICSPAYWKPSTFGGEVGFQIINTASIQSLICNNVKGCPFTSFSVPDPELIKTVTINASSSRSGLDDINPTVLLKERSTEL
The experiment in a line: Whole cell cyclooxygenase assay, COX-2 (PGE2 synthesis in response to arachidonic acid, radioimmunoassay), human osteosarcoma 143 cells. The format is cell-based. The note with it: read-out: Whole Cells COX-2 % inhib.; for inhibition at 0.01 µM: 10 nM; for inhibition at 0.04 µM: 40 nM; for inhibition at 0.02 µM: 20 nM; for inhibition at 0.16 µM: 160 nM; for inhibition at 0.08 µM: 80 nM. How it is done: Compounds were tested as inhibitors of cyclooxygenase activity in whole cell and microsomal cyclooxygenase assays. Both of these assays measured prostaglandin E2 (PGE2) synthesis in response to arachidonic acid, using a radioimmunoassay. Cells used for whole cell assays, and from which microsomes were prepared for microsomal assays, were human osteosarcoma 143 cells (which specifically express cyclooxygenase-2) and human U-937 cells (which specifically express cyclooxygenase-1). In these assays, 100% activity is defined as the difference between prostaglandin E2 synthesis in the absence and presence of arachidonate addition.

Molecules are shown by their SMILES.

As for `Cc1ccc(C2=C(c3ccc(S(C)(=O)=O)cc3)COC2=O)cc1Br` [Example 43, 3-(3-Bromo-4-methylphenyl)-4-(4-(methylsulfonyl)phenyl)-2-(5H)-furanone], the inhibition at 0.01 µM stood at 78% and the inhibition at 0.04 µM came to 101%.
As for `CS(=O)(=O)c1ccc(C2=C(c3ccc(Br)cc3F)C(=O)OC2)cc1` [Example 44, 3-(4-Bromo-2-fluorophenyl)-4-(4-(methylsulfonyl)phenyl)-2-(5H)-furanone], the inhibition at 0.02 µM worked out at 14%, the inhibition at 0.04 µM is 55% and the inhibition at 0.16 µM was determined as 106%.
As for `CS(=O)(=O)c1ccc(C2=C(c3ccc(Br)c(Br)c3)C(=O)OC2)cc1` [Example 45, 3-(3,4-Dibromophenyl)-4-(4-(methylsulfonyl)phenyl)-2-(5H)-furanone], the inhibition at 0.01 µM turned out to be 16%, the inhibition at 0.04 µM came out at 61% and the inhibition at 0.16 µM was 101%.
For `CS(=O)(=O)c1ccc(C2=C(c3ccc(Cl)c(F)c3)C(=O)OC2)cc1` [Example 46, 3-(4-Chloro-3-fluorophenyl)-4-(4-(methylsulfonyl)phenyl)-2-(5H)-furanone], the inhibition at 0.01 µM came out at 76%, the inhibition at 0.04 µM is 94% and the inhibition at 0.16 µM was 97%.
For `CS(=O)(=O)c1ccc(C2=C(c3ccc(Br)c(F)c3)C(=O)OC2)cc1` [Example 47, 3-(4-Bromo-3-fluorophenyl)-4-(4-(methylsulfonyl)phenyl)-2-(5H)-furanone] the same measures were 61%, 74% and 101%.
For the compound `CS(=O)(=O)c1ccc(C2=C(c3ccc(Br)cc3Cl)C(=O)OC2)cc1` [Example 48, 3-(4-Bromo-2-chlorophenyl)-4-(4-(methylsulfonyl)phenyl)-2-(5H)-furanone], the inhibition at 0.01 µM turned out to be 7% and the inhibition at 0.16 µM came to 47%.
Consider `CS(=O)(=O)c1ccc(C2=C(c3ccc4ccccc4c3)C(=O)OC2)cc1` [Example 49, 3-(2-Naphthyl)-4-(4-(methylsulfonyl)phenyl)-2-(5H)-furanone], for which the inhibition at 0.01 µM was found to be 53%, the inhibition at 0.04 µM worked out at 91% and the inhibition at 0.08 µM was determined as 99%.
On to `CS(=O)(=O)c1ccc(C2=C(c3ccc4cccnc4c3)C(=O)OC2)cc1` [Example 50, 3-(7-Quinolinyl)-4-(4-(methylsulfonyl)phenyl)-2-(5H)-furanone], for which the inhibition at 0.08 µM stood at 42%.
In the case of `NS(=O)(=O)c1ccc(C2=C(c3ccc(Cl)c(Cl)c3)C(=O)OC2)cc1` [Example 51, 3-(3 4-Dichlorophenyl)-4-(4-(aminosulfonyl)phenyl)-2-(2H)-furanone], the inhibition at 0.02 µM came out at 95% and the inhibition at 0.04 µM stood at 102%. Moreover, under “5 nM”, the inhibition at 0.005 µM stood at 49%.
Consider `NS(=O)(=O)c1ccc(C2=C(c3ccc(F)c(F)c3)C(=O)OC2)cc1` [Example 52, 3-(3,4-Difluorophenyl)-4-(4-(aminosulfonyl)phenyl)-2-(2H)-furanone], for which the inhibition at 0.01 µM worked out at 50%, the inhibition at 0.04 µM is 82% and the inhibition at 0.16 µM amounted to 102%.
`COc1ccc(C2=C(c3ccc(S(N)(=O)=O)cc3)COC2=O)cc1Cl` [Example 53, 3-(3-Chloro-4-methoxyphenyl)-4-(4-(aminosulfonyl)phenyl)-2-(2H)-furanone]: the inhibition at 0.01 µM was determined as 54%, the inhibition at 0.04 µM worked out at 96% and the inhibition at 0.16 µM amounted to 102%.
For the compound `COc1ccc(C2=C(c3ccc(S(N)(=O)=O)cc3)COC2=O)cc1Br` [Example 54, 3-(3-Bromo-4-methoxyphenyl)-4-(4-(aminosulfonyl)phenyl)-2-(2H)-furanone], the inhibition at 0.01 µM is 81%, the inhibition at 0.08 µM is 91% and the inhibition at 0.16 µM came out at 99%.
